# Results taken from patent US7462615B2, “Inhibitors of cysteine proteases, the pharmaceutical compositions thereof and their therapeutic applications” (Hybrigenics SA, priority 2005, dated 2008).
# pIC50: −log10 of the molar value.
# Biological target: T1, USP8 (Homo sapiens, UniProt P40818)
# T1 construct: His tag (from vector pFastBac-HT) (N); made in house; host or cells: Sf9 or High Five insect cells (baculovirus)
# T1 sequence (P40818 1-1118): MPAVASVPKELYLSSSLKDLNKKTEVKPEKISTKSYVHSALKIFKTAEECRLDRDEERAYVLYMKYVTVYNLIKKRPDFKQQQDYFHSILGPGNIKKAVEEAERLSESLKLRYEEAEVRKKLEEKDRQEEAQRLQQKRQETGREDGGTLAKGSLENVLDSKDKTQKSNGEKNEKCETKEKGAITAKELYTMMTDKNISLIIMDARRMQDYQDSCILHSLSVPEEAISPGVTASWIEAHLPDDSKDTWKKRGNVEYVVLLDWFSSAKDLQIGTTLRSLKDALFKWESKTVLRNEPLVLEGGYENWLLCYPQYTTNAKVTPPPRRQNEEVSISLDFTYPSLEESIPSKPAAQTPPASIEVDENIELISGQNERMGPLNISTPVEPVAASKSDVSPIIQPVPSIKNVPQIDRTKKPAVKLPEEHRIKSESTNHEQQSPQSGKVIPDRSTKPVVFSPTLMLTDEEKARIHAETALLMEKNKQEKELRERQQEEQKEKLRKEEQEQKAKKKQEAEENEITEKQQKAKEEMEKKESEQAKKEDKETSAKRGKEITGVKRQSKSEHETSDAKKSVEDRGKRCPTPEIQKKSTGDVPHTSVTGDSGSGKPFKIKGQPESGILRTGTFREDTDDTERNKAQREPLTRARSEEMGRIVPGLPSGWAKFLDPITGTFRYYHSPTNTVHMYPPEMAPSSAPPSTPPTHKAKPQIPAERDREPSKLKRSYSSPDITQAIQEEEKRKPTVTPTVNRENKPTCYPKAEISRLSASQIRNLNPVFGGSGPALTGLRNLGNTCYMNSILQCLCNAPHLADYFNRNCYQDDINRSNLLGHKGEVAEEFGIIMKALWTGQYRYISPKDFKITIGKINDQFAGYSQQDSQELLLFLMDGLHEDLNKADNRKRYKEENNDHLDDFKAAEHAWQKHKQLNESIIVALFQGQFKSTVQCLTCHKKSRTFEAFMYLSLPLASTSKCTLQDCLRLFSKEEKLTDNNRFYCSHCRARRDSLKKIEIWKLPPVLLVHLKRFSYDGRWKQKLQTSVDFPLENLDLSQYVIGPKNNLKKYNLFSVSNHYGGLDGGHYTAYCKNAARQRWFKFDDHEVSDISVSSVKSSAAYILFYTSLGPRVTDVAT
# Experiment: USP8 Activity Assay
# Type: biochemical
# Details: 400 nM Ub-AMC; 630 pM enzyme; pH8.8; pre-incubated 30 minutes at 25° C., 60 minutes at 37° C.; sigmoidal fit; read-out: USP 8 (Inhibition of cysteine protease activities)
# Excerpt: The cDNA encoding USP8 was obtained by PCR amplification from placenta mRNA. USP8 cDNA was subcloned by PCR into a baculovirus expression vector (pFastBac-HT; Invitrogen). A cDNA encoding a mutated USP8 was generated by mutagenic PCR. The corresponding protein encodes a cysteine to alanine substitution at residue 786. The sequences were ascertained by sequencing of the entire open reading frame. Bacmids encoding USP7 were generated following DH10bac transposition. The corresponding bacmids were transfected into insect cells (Sf9). Viruses were recovered from culture supernatant and amplified twice. Insect cells (Sf9 or High Five; Invitrogen) were infected for 72 hours. Total cell lysates were harvested and lyzed in lysis buffer (Tris HCl 50 mM pH7.6; 0.75% NP40; 500 mM NaCl; 10% glycerol; 1 mM DTT; 10 mM imidazole; Protease Inhibitor Cocktail; AEBSF 20 μg.ml^−1; Aprotinin 10 μg.ml^−1). Proteins were affinity purified on metal affinity resins (Talon Metal affinity resin; BD Biosciences). Bound materials were extensively washed in wash buffer (50 mM Sodium Phosphate pH 7.0; 300 mM NaCl; 10 mM imidazole; 0.5% Triton X-100; 10% glycerol) and eluted from the resin in 250 mM imidazole-containing wash buffer. Proteins were dialyzed in dialysis buffer (Tris HCl pH 7.6 20 mM; NaCl 200 mM; DTT 1 mM; EDTA 1 mM; 10% Glycerol). Proteins purifications were analyzed on 4-12% NuPAGE (Invitrogen).
# USP8 was diluted in USP buffer (50 mM Tris HCl; 0.5 mM EDTA; 5 mM DTT; 0.01% Triton X-100; Bovine Serum Albumin 0.05 mg.ml^−1 pH8.8). Compounds stocks (100 mM) were stored at −20° C. in DMSO.
# Reactions were performed as duplicates in Black LJL 96 well plates (HE microplates; Molecular Devices; 20 μl final reaction volume). The substrate concentration for USP8 was 400 nM Ub-AMC (Boston Biochem). The concentrations of the enzyme (USP8) in specificity assays was 630 pM. The concentrations were determined in order to perform specificity assays under initial velocities at fixed substrate concentration. Compounds were pre-incubated with enzymes for 30 minutes at 25° C. Reactions were initiated by addition of substrate to the plates containing the enzymes (+/−compounds) diluted in assay buffer. Reactions were incubated for 60 minutes at 37° C. Reactions were stopped by adding acetic acid (100 mM final). Readings were performed on a Pherastar Fluorescent Reader (BMG). λ Emission 380 nm; λ Excitation=460 nm. Data (mean values +/− standard deviation) were analyzed as % of control (no compound) and plotted as percentage versus the Log of the compound concentration using GraphPad (Prism). Data were fitted to a sigmoidal model (variable slope).
row,Compound,pIC50
1,O=C1c2ccccc2-c2nn3c(CO)nnc3nc21 [Example 1h/B],6.79
2,"Cc1nnc2nc3c(nn12)C(=O)c1ccccc1-3 [Example 1b/A, 1-Methyl-2,3,4,10,10a-pentaaza-cyclopenta[b]fluoren-9-one]",6.15
3,"O=C1c2ccccc2-c2nc3nnc(C4CC4)n3nc21 [Example 1j/A, 1-Cyclopropyl-2,3,4,10,10a-pentaaza-cyclopenta[b]fluoren-9-one]",5.60
4,"CCCc1nnc2nc3c(nn12)C(=O)c1ccccc1-3 [Example 1e/A, 1-Propyl-2,3,4,10,10a-pentaaza-cyclopenta[b]fluoren-9-one]",6.02
5,"CCc1nnc2nc3c(nn12)C(=O)c1ccccc1-3 [Example 1d/A, 1-Ethyl-2,3,4,10,10a-pentaaza-cyclopenta[b]fluoren-9-one]",6.27
6,"O=C1c2ccccc2-c2nc3nnc(CO)n3nc21 [Example 1h/A, 1-Hydroxymethyl-2,3,4,10,10a-pentaaza-cyclopenta[b]fluoren-9-one]",6.17
7,"CC(C)Cc1nnc2nc3c(nn12)-c1ccccc1C3=O [Example 1g/B, 3-Isobutyl-1,2,3a,4,10-pentaaza-cyclopenta[b]fluoren-9-one]",6.78
8,"Nc1nnc2nc3c(nn12)-c1ccccc1C3=O [Example 1c/B, 3-Amino-1,2,3a,4,10-pentaaza-cyclopenta[b]fluoren-9-one]",7.09
9,"CCCCc1nnc2nc3c(nn12)-c1ccccc1C3=O [Example 1f/B, 3-Butyl-1,2,3a,4,10-pentaaza-cyclopenta[b]fluoren-9-one]",6.82
10,"CC(C)Cc1nnc2nc3c(nn12)C(=O)c1ccccc1-3 [Example 1g/A, 1-Isobutyl-2,3,4,10,10a-pentaaza-cyclopenta[b]fluoren-9-one]",6.27
11,"CCCCc1nnc2nc3c(nn12)C(=O)c1ccccc1-3 [Example 1f/A, 1-Butyl-2,3,4,10,10a-pentaaza-cyclopenta[b]fluoren-9-one]",6.08
12,"Nc1nnc2nc3c(nn12)C(=O)c1ccccc1-3 [Example 1c/A, 1-Amino-2,3,4,10,10a-pentaaza-cyclopenta[b]fluoren-9-one]",6.08

# Second part, the compound after the results:
row,pIC50,Compound
1,5.00,"Cn1nc2nc3c(nc2n1)-c1ccccc1C3=O [Example 4a, 2-Methyl-2H-1,2,3,4,10-pentaaza-cyclopenta[b]fluoren-9-one]"
2,6.52,"6-(7)-Chloro-1-methyl-2,3,4,10,10a-pentaaza-cyclopenta[b]fluoren-9-one [Example 3/A]"
3,4.82,"O=C1c2ccccc2-c2nc3nn(Cc4ccccc4)nc3nc21 [Example 4b, 2-Benzyl-2H-1,2,3,4,10-pentaaza-cyclopenta[b]fluoren-9-one]"
4,6.18,"O=C1c2ccccc2-c2nc3nnc(Cc4ccccc4)n3nc21 [Example 1k/A, 1-Benzyl-2,3,4,10,10a-pentaaza-cyclopenta[b]fluoren-9-one]"
5,6.78,"O=C1c2ccccc2-c2nn3c(Cc4ccccc4)nnc3nc21 [Example 1k/B, 3-Benzyl-1,2,3a,4,10-pentaaza-cyclopenta[b]fluoren-9-one]"
6,6.92,"Cc1nnc2nc3c(nn12)-c1ccc(Cl)cc1C3=O [Example 3/B, 7-Chloro-3-methyl-1,2,3a, 4,10-pentaaza-cyclopenta[b]fluoren-9-one]"
